The values that follow come from US6369251B1, “Method for purification of polyprenyl compounds” (Nikken Chemicals Co., Ltd., priority 1999, dated 2002).

One series has as its system hepatic carcinoma. The following applies: known from literature; cited from earlier work.
A short description of series [1]: Determination of peroxide value by the British Pharmacopeia method (iodometric titration). The class given is physicochemical. The following applies: sample after recrystallization; about 1 g sample, titration with sodium thiosulfate. The protocol: The results of purities and determined peroxide values of (2E, 4E, 6E, 10E)-3,7,11,15-tetramethyl-2,4,6,10,14-hexadecapentaenoic acid obtained in Example 1 and Reference Example 3 are shown in Table 1.
The determination of the peroxide values was performed by the method described in the British Pharmacopeia. About 1 g of each sample was accurately weighed in a stoppered Erlenmeyer flask, and the sample was added with chloroform (15 mL) and dissolved. The solution was added with acetic acid (20 mL), and the mixture was shaken gently. Air in the flask was sufficiently substituted with argon atmosphere, and the mixture was added with 1 mL of saturated potassium iodide solution prepared just before use, and the mixture was left stand for 10 minutes in a dark place. Then, the mixture was added with 30 mL of water and shaken vigorously. The liberated iodine was titrated with […] sodium thiosulfate solution (indicator: 2 mL of the starch test solution). The titration was terminated when the purplish red color of the solution disappeared. Correction was made by performing a blank test in the same manner.
The peroxide value was calculated by using the following equation.
Peroxide value (meq/kg)=10f(a−b)/Sampled weight (g) a: Titration volume (mL) of 0.01 mol/L Na2S2O3 solution b: Titration volume (mL) of 0.01 mol/L Na2S2O3 solution in the blank test f: Factor of 0.01 mol/L Na2S2O3 solution

Structures are written as SMILES.

For `CC(C)=CCC/C(C)=C/CC/C(C)=C/C=C/C(C)=C/C(=O)O` [(2E, 4E, 6E, 10E)-3,7,11,15-Tetramethyl-2,4,6,10,14-hexadecapentaenoic acid], the “effect on recurrence of hepatic carcinoma” value with hepatic carcinoma is “suppressing effect on recurrence of hepatic carcinoma”.
In the case of `CC(C)=CCC/C(C)=C/CC/C(C)=C/C=C/C(C)=C/C(=O)O` [Example 1, (2E, 4E, 6E, 10E)-3,7,11,15-tetramethyl-2,4,6,10,14-hexadecapentaenoic acid], the Peroxide value in series [1] amounted to 0 meq/kg.
As for `CC(C)=CCC/C(C)=C/CC/C(C)=C/C=C/C(C)=C/C(=O)O` [Reference Example 3, (2E, 4E, 6E, 10E)-3,7,11,15-tetramethyl-2,4,6,10,14-hexadecapentaenoic acid], in series [1], the Peroxide value is 3.0 meq/kg.
